Assay [1] has as its system E. coli. To be noted: cited from earlier work.
For assay [2], the system named is E. coli. The assay is described as follows: Checkerboard assay (MIC in combination, FIC index). On the set-up: MIC of colistin: unit not given here. To be noted: for MIC of colistin: colistin-resistant E. coli FORC81. It counts as cell-based, Escherichia coli. The protocol: LNT113 was vertically diluted 2-fold and the antibiotic was serially diluted horizontally in a 96-well plate. Bacterium at a concentration of 10^6 CFU/ml were added to each well in a CAA medium. […] The fractional inhibitory concentration (FIC) for the LNT113 or antibiotic was calculated by dividing the MIC of two drugs by combining it with the MIC of each drug alone. […] The FICI was considered as a synergistic effect ≤0.5, an additive >0.5 ˜≤1, an independent effect (indifference)>1.0 ˜≤2, and an antagonistic effect (antagonism) >2.

Assay [3] deals with E. coli. The assay is described as follows: Antibacterial activity analysis (colony count after 2 hours in buffer). It counts as cell-based, Escherichia coli. To be noted: colistin-resistant E. coli FORC81; 2 μM, 2 hours. Here is the method:
The antibacterial activity of the purified protein was tested for E. coli and various K. pneumoniae strains. The bacterium were grown to an exponential phase (OD600=0.5) and harvested by centrifugation at 12,000×g for 3 minutes. Then, the pellets were washed with reaction buffer solution (20 mM Tris-HCl, pH 7.5) and diluted to about 10^6 cells/ml in the buffer solution. Then, 100 μl bacterial suspension was mixed with the purified endolysin of 100 μl in the reaction buffer solution and incubated at 37° C. for 2 hours. Finally, the mixture was diluted with PBS and loaded on an LB plate. After culturing at 37° C. overnight, the bacterial colonies were counted. All the analysis was performed in triplicate.
The same reaction was performed for the selected subject bacterium in 20 mM HEPES-NaOH, 150 mM NaCl [pH 7.4], and the unique antibacterial activity of Tris and dependence of endolysin for turgor pressure were excluded (FIG. 10a and FIG. 10b). […] The bacterial cells grown geometrically were cultured with 2 μM endolysin in low tonicity buffers (20 mM Tris-HCl, pH 7.5 or 20 mM HEPES, pH 7.5) or high tonicity buffers (buffer solution comprising 150 mM NaCl) at 37° C. for 2 hours. The cells treated with storage buffer solution (20 mM Tris-HCl, pH 7.5, 150 mM NaCl buffer solution (pH 7.5)) were used as a negative control group. The dotted line represents the detection limit (1 Log CFU/ml).
For this, endolysin EC340 at a concentration of 2 μM and each test bacterium were added to reaction buffer (20 mM Tris-Cl, pH 7.5) so that the final concentration was to be 200 μl, and were left at 37° C. for 2 hours. After 2 hours, the number of colonies of Acinetobacter baumannii, Pseudomonas aeruginosa and Escherichia coli was confirmed, and the result was shown in FIG. 3.

Where [4] appears, read: antibiotic combined with LNT113, E. coli ATCC 8739.
[5] abbreviates: antibiotic combined with LNT113, E. coli ATCC 51739.
The mark [6] stands for this setting: antibiotic combined with LNT113, E. coli FORC81.
Where [7] appears, read: antibiotic combined with LNT113, E. coli UPEC 3150.
Setting [8] is: antibiotic combined with LNT113, E. coli CCARM 1A746.
Setting [9] is: antibiotic combined with LNT113, E. coli strains overall.

Entries after “also recorded” stand apart in the source; their conditions may differ. Read-outs that look alike come from different tables or passages of the source.

In the case of `[H]/N=C(/N)N[C@H]1[C@H](O)[C@@H](O)[C@H](O[C@@H]2O[C@@H](C)[C@](O)(C=O)[C@H]2O[C@@H]2O[C@@H](CO)[C@H](O)[C@@H](O)[C@@H]2NC)[C@@H](N/C(N)=N\[H])[C@@H]1O` [Streptomycin], the MIC of antibiotics in the assay on E. coli [1] (E. coli CCARM 1A746) and in the assay on E. coli [1] (E. coli CCARM 1B684) was at least 128 µg/mL each time.

In the case of `O=C(N[C@H](CO)[C@H](O)c1ccc([N+](=O)[O-])cc1)C(Cl)Cl` [Chloramphenicol], the “Fractional inhibitory concentration index (FICI) of LNT113 using various antibiotics” value turned out to be 1 in the assay on E. coli [2] (setting [4]), 0.75 with E. coli [2] (setting [5]), 2 with E. coli [2] (setting [6]) and 0.75 in the assay on E. coli [2] (setting [7]).

For the molecule `CN(C)c1cc(NC(=O)CNC(C)(C)C)c(O)c2c1C[C@H]1C[C@H]3[C@H](N(C)C)C(O)=C(C(N)=O)C(=O)[C@@]3(O)C(O)=C1C2=O` [Tigecycline], the “Fractional inhibitory concentration index (FICI) of LNT113 using various antibiotics” value was 2 in the assay with E. coli [2] (setting [4]); 0.63 with E. coli [2] (setting [5]); 2 with E. coli [2] (setting [8]); 2 with E. coli [2] (setting [6]); 0.63 in the assay on E. coli [2] (setting [7]).

With `C[C@@H](O)[C@H]1C(=O)N2C(C(=O)O)=C(S[C@@H]3CN[C@H](C(=O)N(C)C)C3)[C@H](C)[C@H]12` [Meropenem], the “Fractional inhibitory concentration index (FICI) of LNT113 using various antibiotics” value is 0.63 in the assay with E. coli [2] (setting [4]); 0.75 with E. coli [2] (setting [5]); 1 in the assay on E. coli [2] (setting [8]); 2 with E. coli [2] (setting [6]); 1 in the assay on E. coli [2] (setting [7]). Further, in the assay with E. coli [2] (setting [9]), the “combination effect with LNT113, in words” value is “slight additive effect”.

On to Colistin, for which the “strains in which the synergistic effect with LNT113 was observed” value in the assay on E. coli [2] (5 different E. coli strains) was 4 strains among 5 strains. Moreover, the “MIC of endolysin combined with colistin: Colistin” value (shortened to “MIC of endolysin combined”) with E. coli [2] (E. coli ATCC8738, EC340 0) is 2 µg/mL; in the assay with E. coli [2] (E. coli ATCC8738, EC340 16), 0.125 µg/mL; with E. coli [2] (E. coli ATCC8738, EC340 32) it was 0.0625 µg/mL; with E. coli [2] (E. coli ATCC8738, EC340 <2), 0.25 µg/mL; in the assay with E. coli [2] (E. coli ATCC8738, mtEC340 0), 2 µg/mL; with E. coli [2] (E. coli ATCC8738, mtEC340 16) it was 0.125 µg/mL. Also, the “MIC of endolysin combined” value in the assay on E. coli [2] (E. coli ATCC8738, mtEC340 32) was determined as 0.125 µg/mL; with E. coli [2] (E. coli ATCC8738, mtEC340 <2) it was 0.25 µg/mL; in the assay with E. coli [2] (E. coli ATOCB739, LNT113 0) it was 2 µg/mL; in the assay on E. coli [2] (E. coli ATOCB739, LNT113 1) it was 1 µg/mL; in the assay on E. coli [2] (E. coli ATOCB739, LNT113 2), 0.5 µg/mL; in the assay on E. coli [2] (E. coli ATOCB739, LNT113 4), 0.0625 µg/mL. The “MIC of endolysin combined” value in the assay with E. coli [2] (E. coli FORC81, LNT113 0) turned out to be 16 µg/mL; with E. coli [2] (E. coli FORC81, LNT113 2) it was 4 µg/mL; in the assay with E. coli [2] (E. coli FORC81, LNT113 4), 1 µg/mL; in the assay on E. coli [2] (E. coli FORC81, LNT113 <0.25), 8 µg/mL; in the assay on E. coli [2] (E. coli UPEC3150, LNT113 0), 4 µg/mL; with E. coli [2] (E. coli UPEC3150, LNT113 1) it was 2 µg/mL. For the same molecule, the “MIC of endolysin combined” value in the assay on E. coli [2] (E. coli UPEC3150, LNT113 2) was 0.5 µg/mL; with E. coli [2] (E. coli UPEC3150, LNT113 4), 0.0625 µg/mL. Further, the “combination effect with LNT113 (FICI class)” value in the assay with E. coli [2] (E. coli ATCC 8739), in the assay on E. coli [2] (E. coli FORC81), in the assay with E. coli [2] (E. coli UPEC 3150) and in the assay on E. coli [2] (setting [9]) was “synergistic effect (a synergistic effect ≤0.5)” throughout. Further, the “MIC of colistin in presence of endolysin EC340 or mtEC340” value in the assay on E. coli [2] (Table 3) was “significantly reduced”. Besides, the “Fractional inhibitory concentration index (FICI) of LNT113 using various antibiotics” value in the assay with E. coli [2] (setting [4]) amounted to 0.25; with E. coli [2] (setting [5]), 0.5; in the assay with E. coli [2] (setting [8]), 0.63; in the assay with E. coli [2] (setting [6]) it was 0.5; with E. coli [2] (setting [7]), 0.38; with E. coli [2] (antibiotic combined with LNT113, E. coli UPEC 3150, listed as colistin), 0.375. Moreover, the MIC of colistin in the assay on E. coli [2] (colistin alone) is listed as 16; in the assay on E. coli [2] (in combination with LNT113 of 4 mg/ml), 1. Moreover, the “decrease of bacterial cells” value in the assay with E. coli [3] stood at 1.2 log.

Turning to `NC[C@H]1O[C@H](O[C@H]2[C@H](O)[C@@H](O[C@H]3O[C@H](CO)[C@@H](O)[C@H](N)[C@H]3O)[C@H](N)C[C@@H]2N)[C@H](O)[C@@H](O)[C@@H]1O` [Kanamycin], the “Fractional inhibitory concentration index (FICI) of LNT113 using various antibiotics” value in the assay on E. coli [2] (setting [4]) stood at 2; in the assay with E. coli [2] (setting [5]), 1; with E. coli [2] (setting [6]), 1; in the assay on E. coli [2] (setting [7]), 1.

Regarding `CC[C@H]1OC(=O)[C@H](C)[C@@H](O[C@H]2C[C@@](C)(OC)[C@@H](O)[C@H](C)O2)[C@H](C)[C@@H](O[C@@H]2O[C@H](C)C[C@H](N(C)C)[C@H]2O)[C@](C)(O)C[C@@H](C)CN(C)[C@H](C)[C@@H](O)[C@]1(C)O` [Azithromycin], the “Fractional inhibitory concentration index (FICI) of LNT113 using various antibiotics” value in the assay with E. coli [2] (setting [4]) was determined as 1; in the assay with E. coli [2] (setting [5]), 0.75; in the assay on E. coli [2] (setting [8]), 1; in the assay on E. coli [2] (setting [6]), 2; in the assay on E. coli [2] (setting [7]), 0.75.

Turning to `CC(C)(O/N=C(\C(=O)N[C@@H]1C(=O)N2C(C(=O)[O-])=C(C[n+]3ccccc3)CS[C@H]12)c1csc(N)n1)C(=O)O` [Ceftazidime], the “Fractional inhibitory concentration index (FICI) of LNT113 using various antibiotics” value in the assay on E. coli [2] (setting [4]) came out at 2; in the assay with E. coli [2] (setting [5]), 2; in the assay with E. coli [2] (setting [8]) it was 2; in the assay with E. coli [2] (setting [6]), 1; in the assay with E. coli [2] (setting [7]), 1. In the assay on E. coli [2] (setting [9]), the “combination effect with LNT113, in words” value was “Neither ceftazidime and kanamycin showed a synergistic or additive effect; also recorded: little additive effect”.

As for `CCn1cc(C(=O)O)c(=O)c2cc(F)c(N3CCNCC3)cc21` [Norfloxacin], the MIC of antibiotics in the assay on E. coli [1] (E. coli CCARM 1A746) was at least 128 µg/mL; in the assay on E. coli [1] (E. coli CCARM 1B684), 32 µg/mL.

(Values after patent publication US12102667B2, “Polypeptides and antibiotics against gram-negative bacterium comprising the same” (priority 2021, dated 2024).)
